Measured values: patent US11608332B2, “FGFR4 inhibitor and preparation method and use thereof” (Jiangsu Hansoh Pharmaceutical Group Co., Ltd., priority 2016, dated 2023)

Assays:
FGFR1 kinase = FGFR1 kinase (Homo sapiens (Human), UniProt P11362); assay: Enzymologic experiment of FGFR1 (TR-FRET); type: biochemical; conditions: TR-FRET kinase activity
Procedure, shortened: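 Inhibition of FGFR1 (0.1–5 nM) was measured by TR-FRET with 5–50 nM peptide substrate and 10–200 μM ATP over 0.5–3 h at room temperature. The reaction was stopped with EDTA plus labeled antibody for 1 h, read at 665 nm, and IC50 was fitted from inhibition rates.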

Hep 3B cells = assay: Inhibition of Hep 3B cell proliferation (CellTiter-Glo); type: cell-based; conditions: Homo sapiens, Hep3B, 72 hours
Procedure, shortened: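 Hep 3B cells seeded at 1-5×10^4 cells/ml and incubated 16-24 h, then exposed to serially diluted compound for 72 h at 37° C, 5% CO2. Viability read by CellTiter-Glo chemiluminescence; IC50 curve-fitted from inhibition rates.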

SK-HEP-1 cells = assay: Inhibition of SK-HEP-1 cell proliferation (CellTiter-Glo); type: cell-based; conditions: Homo sapiens, SK-HEP1, 72 hours
Procedure, shortened: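 SK-HEP-1 cells were seeded, grown 16–24 h, then exposed to serially diluted compound for 72 h at 37 °C, 5% CO2. Viability was read by CellTiter-Glo luminescence, and IC50 was fitted from inhibition rates.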

HuH-7 cells = assay: Inhibition of HuH-7 cell proliferation (CellTiter-Glo); type: cell-based; conditions: Homo sapiens, 72 hours
Procedure, shortened: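 HuH-7 cells, pre-incubated 16–24 h (37 °C, 5% CO2), then exposed to serially diluted compound for 72 h. Viability by CellTiter-Glo luminescence; inhibition rates from signal, IC50 by curve fitting.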

FGFR4 kinase = FGFR4 kinase (Homo sapiens (Human), UniProt P22455); assay: Enzymologic experiment of FGFR4 (TR-FRET); type: biochemical; conditions: TR-FRET kinase activity
FGFR4 kinase, sequence (P22455 22-802): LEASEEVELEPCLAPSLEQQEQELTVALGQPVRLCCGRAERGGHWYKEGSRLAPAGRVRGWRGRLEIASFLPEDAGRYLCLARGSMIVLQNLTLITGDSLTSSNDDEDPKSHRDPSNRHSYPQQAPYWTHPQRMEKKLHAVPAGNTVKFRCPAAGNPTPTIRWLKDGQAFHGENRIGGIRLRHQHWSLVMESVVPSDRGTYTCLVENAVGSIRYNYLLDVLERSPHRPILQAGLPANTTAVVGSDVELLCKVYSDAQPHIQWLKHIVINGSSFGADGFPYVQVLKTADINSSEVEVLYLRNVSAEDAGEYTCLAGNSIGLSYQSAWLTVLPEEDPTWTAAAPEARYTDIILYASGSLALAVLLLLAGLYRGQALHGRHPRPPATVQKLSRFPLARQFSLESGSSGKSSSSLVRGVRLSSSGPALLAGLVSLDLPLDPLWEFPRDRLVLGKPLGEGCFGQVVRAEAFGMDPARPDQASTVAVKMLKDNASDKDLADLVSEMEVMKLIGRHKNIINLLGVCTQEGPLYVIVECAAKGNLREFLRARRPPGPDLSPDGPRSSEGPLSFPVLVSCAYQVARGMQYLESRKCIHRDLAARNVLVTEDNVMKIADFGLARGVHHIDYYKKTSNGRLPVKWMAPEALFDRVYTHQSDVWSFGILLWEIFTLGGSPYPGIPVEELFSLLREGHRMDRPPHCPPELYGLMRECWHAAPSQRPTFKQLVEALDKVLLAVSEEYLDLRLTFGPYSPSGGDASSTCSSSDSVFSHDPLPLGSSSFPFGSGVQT
Description: 1. Enzymologic Experiment of FGFR4
In this experiment, the inhibitory effect of the compounds on FGFR4 kinase activity was tested by a fluorescence resonance energy transfer (TR-FRET) method, and the half maximal inhibitory concentration (IC50) of the compounds on the FGFR4 kinase activity was determined.
2) 1˜5 μL of diluted solution in gradient of the compound were added.
4) The mixture was incubated for 0.5-3 hours at room temperature.
5) 10 μL of EDTA and a test solution comprising labeled antibody were added, and the plate was incubated for 1 hour at room temperature.
6) The fluorescence signal values of each plate were determined by a microplate reader at 665 nm.
7) The inhibition rates were calculated according to the fluorescence signal values.

[1] = Pharmacokinetic (PK) analysis in rats; type: in vivo, Sprague Dawley (SD) rats; conditions: SD rats, single intragastric administration, 5 mg/kg, plasma; for AUC(0-t) / AUC(0-inf) / half-life / MRT / Cmax: Sprague-Dawley, rat, po; for AUC(0-t): read-out: Area Under Curve AUC0-t; for AUC(0-inf): read-out: Area Under Curve AUC0-∞; for half-life: read-out: Half-Time t1/2 (converted); for MRT: read-out: Mean Residence Time MRT; for Cmax: read-out: Plasma Concentration Cmax

FGFR1 kinase, sequence (P11362 22-822): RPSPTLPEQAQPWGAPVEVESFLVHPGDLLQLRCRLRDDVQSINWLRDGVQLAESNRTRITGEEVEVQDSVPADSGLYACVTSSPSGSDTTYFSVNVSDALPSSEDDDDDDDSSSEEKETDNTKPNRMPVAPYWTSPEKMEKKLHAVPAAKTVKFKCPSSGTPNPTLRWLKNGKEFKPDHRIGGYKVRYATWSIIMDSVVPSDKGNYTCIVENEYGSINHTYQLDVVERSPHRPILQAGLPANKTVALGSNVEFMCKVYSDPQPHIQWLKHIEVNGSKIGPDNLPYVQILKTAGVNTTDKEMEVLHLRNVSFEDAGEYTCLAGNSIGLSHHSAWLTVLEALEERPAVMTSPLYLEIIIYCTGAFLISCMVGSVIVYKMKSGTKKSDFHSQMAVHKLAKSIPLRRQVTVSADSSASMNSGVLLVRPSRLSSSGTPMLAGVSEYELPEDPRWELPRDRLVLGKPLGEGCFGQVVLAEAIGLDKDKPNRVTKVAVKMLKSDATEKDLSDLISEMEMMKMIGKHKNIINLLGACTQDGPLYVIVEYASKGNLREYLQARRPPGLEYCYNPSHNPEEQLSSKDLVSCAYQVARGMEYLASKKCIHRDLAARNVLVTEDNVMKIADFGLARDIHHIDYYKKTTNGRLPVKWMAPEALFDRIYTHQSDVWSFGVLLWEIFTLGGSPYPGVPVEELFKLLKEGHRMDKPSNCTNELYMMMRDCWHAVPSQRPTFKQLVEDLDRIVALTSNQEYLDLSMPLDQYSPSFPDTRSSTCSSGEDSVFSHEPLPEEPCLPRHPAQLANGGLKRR

| Structure (SMILES) | IC50 (FGFR1 kinase) | IC50 (Hep 3B cells) | IC50 (SK-HEP-1 cells) | IC50 (HuH-7 cells) | IC50 (FGFR4 kinase) | Peak Time tmax [1] | AUC(0-t) [1] | AUC(0-inf) [1] | half-life [1] | MRT [1] | Cmax [1] |
| --- | --- | --- | --- | --- | --- | --- | --- | --- | --- | --- | --- |
| COCC(=O)N(C)Cc1cc2c(nc1C=O)N(C(=O)Nc1cc(N[C@@H]3COC[C@H]3OC)c(C#N)cn1)CCC2 (relative stereo) [Example 108, N-(5-Cyano-4-(((trans)-4-methoxytetrahydrofuran-3-yl)amino)pyridin-2-yl)-7-formyl-6-((2-methoxy-N-methylacetamido)methyl)-3,4-dihydro-1,8-naphthyridin-1 (2H)-carboxamide] | > 10000 nM | 2.5 nM | > 10000 nM | 10 nM | 1.07 nM | – | – | – | – | – | – |
| COCCNc1cc(NC(=O)N2CCCc3cc(CN(C)C(=O)[C@H]4CCCN4C)c(C=O)nc32)ncc1C#N [Example 9, (R)—N-(5-Cyano-4-((2-methoxyethyl)amino)pyridin-2-yl)-6-((N,1-dimethylpyrrolidin-2-carboxamido)methyl)-7-formyl-3,4-dihydro-1,8-naphthyridin-1(2H)-carboxamide] | > 10000 nM | 8.2 nM | > 10000 nM | 31 nM | 0.74 nM | 2 h | 4400 ng·h/mL | 4800 ng·h/mL | 1.3 h | 3 h | 1700 ng/mL |
| COC[C@@H](C)Oc1cc(NC(=O)N2CCCc3cc(CN(C)C(=O)[C@H]4CCCO4)c(C=O)nc32)ncc1C#N [Example 15, N-(5-Cyano-4-(((R)-1-methoxypropan-2-yl)oxy)pyridin-2-yl)-7-formyl-6-(((R)—N-methyltetrahydrofuran-2-carboxamido)methyl)-3,4-dihydro-1,8-naphthyridin-1(2H)-carboxamide] | > 10000 nM | 3.5 nM | > 10000 nM | 8 nM | 2.53 nM | 2 h | 7160 ng·h/mL | 7970 ng·h/mL | 1.5 h | 3 h | 2690 ng/mL |
| COCCSc1cc(NC(=O)N2CCCc3cc(CN(C)C(=O)[C@H]4CCCO4)c(C=O)nc32)ncc1C#N [Example 16, (R)—N-(5-Cyano-4-((2-methoxyethyl)thio)pyridin-2-yl)-7-formyl-6-((N-methyltetrahydrofuran-2-carboxamido)methyl)-3,4-dihydro-1,8-naphthyridin-1(2H)-carboxamide] | > 10000 nM | 3.9 nM | > 10000 nM | 10.7 nM | 1.98 nM | 2 h | 8760 ng·h/mL | 8370 ng·h/mL | 1.4 h | 2.5 h | 3140 ng/mL |
| COC[C@@H](C)Oc1cc(NC(=O)N2CCCc3cc(CN4CC[C@H](OC)C4=O)c(C=O)nc32)ncc1C#N [Example 50, N-(5-Cyano-4-(((R)-1-methoxypropan-2-yl)oxy)pyridin-2-yl)-7-formyl-6-(((S)-3-methoxy-2-carbonylpyrrolidin-1-yl)methyl)-3,4-dihydro-1,8-naphthyridin-1(2H)-carboxamide] | > 10000 nM | 2.3 nM | > 10000 nM | 9.4 nM | 1.2 nM | 2 h | 9220 ng·h/mL | 9240 ng·h/mL | 0.8 h | 2.5 h | 2350 ng/mL |
| CO[C@H]1CCN(Cc2cc3c(nc2C=O)N(C(=O)Nc2cc(NC4COC4)c(C#N)cn2)CCC3)C1=O [Example 83, (S)—N-(5-Cyano-4-(oxetan-3-ylamino)pyridin-2-yl)-7-formyl-6-((3-methoxy-2-carbonylpyrrolidin-1-yl)methyl)-3,4-dihydro-1,8-naphthyridin-1(2H)-carboxamide] | > 10000 nM | 4.7 nM | > 10000 nM | 5.5 nM | 1.32 nM | 2 h | 7520 ng·h/mL | 7590 ng·h/mL | 0.9 h | 3 h | 2330 ng/mL |
| CO[C@H]1CCN(Cc2cc3c(nc2C=O)N(C(=O)Nc2cc(N[C@@H]4COC[C@H]4OC)c(C#N)cn2)CCC3)C1=O [Example 86] | > 10000 nM | 3 nM | > 10000 nM | 13.1 nM | 1.34 nM | 2 h | 6830 ng·h/mL | 6900 ng·h/mL | 1 h | 2.7 h | 2760 ng/mL |
| CCN1CCC[C@@H]1C(=O)N(C)Cc1cc2c(nc1C=O)N(C(=O)Nc1cc(NCCOC)c(C#N)cn1)CCC2 [Example 97, (R)—N-(5-Cyano-4-((2-methoxyethyl)amino)pyridin-2-yl)-6-((1-ethyl-N-methylpyrrolidin-2-carboxamido)methyl)-7-formyl-3,4-dihydro-1,8-naphthyridin-1(2H)-carboxamide] | > 10000 nM | 9.8 nM | > 10000 nM | 43.7 nM | 1.47 nM | – | – | – | – | – | – |
| CN(Cc1cc2c(nc1C=O)N(C(=O)Nc1cc(N[C@H]3CCOC3)c(C#N)cn1)CCC2)C(=O)C1CCOCC1 [Example 99, (S)—N-(5-Cyano-4-((tetrahydrofuran-3-yl)amino)pyridin-2-yl)-7-formyl-6-((N-methyltetrahydro-2H-pyran-4-carboxamido)methyl)-3,4-dihydro-1,8-naphthyridin-1(2H)-carboxamide] | > 10000 nM | 5.5 nM | > 10000 nM | 12 nM | 1.95 nM | – | – | – | – | – | – |
